Experimental data as given in patent US12150933B2, “IL-8 inihibitors for use in the treatment of some urological disorders” (DOMPÉ FARMACEUTICI S.P.A., priority 2015, dated 2024).
Counter-ions that a name gives are not always drawn.

Tests used:
[1] = test system: CYP-induced visceral pain; test: Chronic preventive treatment in CYP-induced visceral pain model in rats; comparison with Mesna; format: in vivo, rat; details: 12.5 mg/kg i.p. several times a day for 3 days
Procedure: The effect of chronic preventive administration of Compd. 1 in a visceral pain model induced by repeated administration of cyclophosphamide (CYP) in conscious rats was evaluated.
The oral dose of 7 mg/kg of Compd. 1 was chosen on the basis of previous evaluations. Compd. 1 or vehicle was orally administered to animals twice daily (according to the PK profile of the molecule) for 7 days. Mesna_or vehicle was intraperitoneally administered several times a day for 3 days (when CYP was administered).
Repeated treatment with CYP (75 mg/kg i.p. for 3 times, every 3rd day), induced a strong decrease in withdrawal thresholds to noxious stimulus measured at the level of low abdomen and hind-paws. Nociceptive hypersensitivity was evaluated. In the control group, nociceptive thresholds of abdomen and hind-paws were not altered after the treatment with vehicle.
Behavioral testing was performed at 4 different times: • before CYP administration (in order to acquire basal values) • after CYP administration and before treatment with the tested compound, to verify the pathology (in order to acquire pre-treatment values) • after treatment, 42 or 48 hours from the last administration of Compd. 1 or Mesna.

CYP-induced cystitis [2] = test: Microscopic examination of urinary bladders after chronic preventive administration; format: in vivo, rat; details: preventive Mesna treatment
From the text: At the end of the study, the urinary bladders were opened, placed in 10% buffered formalin and stored at room temperature until completion of hystomorphological analysis (see Example 6 below).
At the end of the efficacy study of chronic preventive administration, the urinary bladders were opened, placed in 10% buffered formalin and stored at room temperature until hystomorphological analysis.
Treatment with Compd. […] 1.

CXCR1/CXCR2 = details: cited from earlier work
[3] = test system: CYP-induced visceral pain; test: Acute administration in CYP-induced visceral pain in rats (Von Frey mechanical threshold); format: in vivo, rat; details: 2 hours after administration, versus pre-treatment
Procedure: Female Sprague Dawley rats (Crl:CD(SD)BR, 250-350 g) from Charles River Italy were used in these experiments. Animals were housed with free access to food and water and maintained on a forced 12 hours light-dark cycle at 22-24° C. for at least one week before the experiments were carried out. The animals were handled according to internationally accepted principles for care of laboratory animals (E.E.C. Council Directive 86/609, […]. 18, 1986). Cyclophosphamide, 75 mg/kg i.p. for 3 times, every 3rd day, was dissolved in distilled water and administered to animals by i.p. route (volume 5 mL/kg). Appropriate weight of Compd. 1 or Compd. 2 was dissolved in saline, all doses of test compounds were administered by oral gavage (volume 2 mL/kg). On the day of the experiment, each rat was placed individually in a clear plastic testing box with a grid floor and allowed to acclimatize for at least 10 min. Visceral sensitivity in response to mechanical stimuli was determined using Von Frey monofilaments (1-2-4-8-15-26-60-100 g) applied in the lower abdominal area (close to the urinary bladder) and on both hind paws plantar surface (to evaluate referred pain). Each Von Frey monofilament was applied 5 times at the level of abdomen and 3 times at the level of each paw, in an ascending order of strength at interval of 5 sec. A stimulus-induced response was considered positive when the paw was sharply withdrawn, paw licking occurred, or the animal flinched upon removal of the filament. Behavioral testing on animals was performed at 3 different times: • before CYP administration (in order to acquire basal values) • after CYP administration, before treatment with the test compound, to verify the pathology (in order to acquire pre-treatment values) • after CYP administration, after treatment (in order to acquire post-treatment values) […] The test was performed in blind. Compd. 1 and Compd. […]

CYP-induced cystitis [4] = test: Cystometrographic recordings in conscious rats with CYP-induced cystitis; format: in vivo, rat; details: 24 hours after CYP 175 mg/kg i.p.
Procedure: Female Sprague Dawley rats (Crl:CD(SD)BR, 250-350 g bw) from Charles River Italy were used in these experiments. Animals were housed with free access to food and water and maintained on a forced 12 hours light-dark cycle at 22-24° C. for at least one week before the experiments were carried out.
Rats, anaesthetized with equithensin solution (2 ml/kg i.p.), were placed in a supine position and an approximately 10 mm midline incision was made in the shaved and cleaned abdominal wall. The urinary bladder was gently freed from adhering tissues, emptied and then cannulated, via an incision at the dome, with a polyethylene cannula (Portex, ID 0.58 mm, OD 0.96 mm), which was permanently sutured with silk thread. The cannula was exteriorized through a subcutaneous tunnel in the retroscapular area, where it was connected with a plastic adapter, in order to avoid the risk of removal by the animal.
For drugs testing, rats were utilized one day after catheter implantation at about 24 hours after administrations CYP.
On the day of the experiment, the rats (fasted overnight) were placed in Bollman's cages; after a stabilization period of 20 min, the free tip of the cannula was connected by a T-shape tube to a pressure transducer and to a peristaltic pump for a continuous infusion of saline solution (room temperature) into the urinary bladder, at the constant rate of 0.05 ml/min. This procedure, termed cystometry, allows the detection of continuous cycles of filling and voiding of the bladder named cystometrograms.
From the cystometrograms acquired by the Biopac System and recorded on a PC the Bladder Volume Capacity (BVC) parameter was calculated as volume capacity, defined as volume (in ml) infused into the bladder and necessary to induce detrusor contraction followed micturition.
Basal BVC was evaluated as mean values from the cystometrograms recorded in 30-60 minutes of time prior the treatment (“BASAL”). Then the bladder infusion was stopped, the animals were treated orally with the test compound or vehicle and, after restarting continuous bladder filling with saline for 4 or 5 hours, BVC values after administration were collected.
BVC parameters were recorded from the cystometrogram over a 4/5 hours period post-dose.

[5] = test system: CYP-induced visceral pain; test: Chronic administration in CYP-induced visceral pain in rats (Von Frey withdrawal threshold); format: in vivo, rat; details: 40-80 mg/kg p.o., systemic
Procedure: Cyclophosphamide, 75 mg/kg i.p. for 3 times, every 3rd day, was dissolved in distilled water and administered to animals by i.p. route (volume 5 mL/kg). Appropriate weight of Compd. 1 or Compd. 2 was dissolved in saline, all doses of test compounds were administered by oral gavage (volume 2 mL/kg).
On the day of the experiment, each rat was placed individually in a clear plastic testing box with a grid floor and allowed to acclimatize for at least 10 min. Visceral sensitivity in response to mechanical stimuli was determined using Von Frey monofilaments (1-2-4-8-15-26-60-100 g) applied in the lower abdominal area (close to the urinary bladder) and on both hind paws plantar surface (to evaluate referred pain).
Each Von Frey monofilament was applied 5 times at the level of abdomen and 3 times at the level of each paw, in an ascending order of strength at interval of 5 sec. A stimulus-induced response was considered positive when the paw was sharply withdrawn, paw licking occurred, or the animal flinched upon removal of the filament.
• before CYP administration (in order to acquire basal values) • after CYP administration and before treatment, to verify the pathology (in order to acquire pre-treatment values) • after chronic treatment, about 18 hours after last administration of Compd. 1 (in order to acquire post-treatment values). • after chronic treatment, 2 hours after the last administration of Compd. 1 (in order to acquire post-treatment values after chronic+acute administration)
Compd. 1 or vehicle was administered p.o. to animals twice daily (according to the pharmacokinetic profile of the compound) for 6 days, starting from 24 hours after last treatment with CYP, when painful symptoms were well established. Nociceptive hypersensitivity was evaluated about 18 hours after the last administration of Compd. 1 (or vehicle) in order to evaluate the effect of chronic administration, or a further dosage of compound was administered and evaluation carried out 2 hours thereafter, in order to compare with acute protocol, described in Example 1.

SMILES: O=S(=O)(O)CCS [Mesna, 2-mercaptoethene sulfate, reference compound]
- CYP-induced nociceptive behavior [1]: did not produce a reduction of CYP-induced nociceptive behavior
- protective effect on the CYP-induced cystitis (CYP-induced cystitis [2]): did not exert any protective effect

SMILES: C[C@@H](C(=O)NS(C)(=O)=O)c1ccc(OS(=O)(=O)C(F)(F)F)cc1 [Compd. 2, R(−)-2-[(4′-trifluoromethanesulfonyloxy)phenyl]-N-methanesulfonyl propionamide]
- CXCR1/CXCR2 inhibition (CXCR1/CXCR2): potent and selective dual CXCR1/CXCR2 non-competitive allosteric inhibitor
- mechanical threshold, abdomen and hind paws ([3]; 10 mg/kg p.o.): statistically significant increase in mechanical threshold only in the abdomen
- mechanical threshold, abdomen and hind paws ([3]; 30 mg/kg p.o.): statistically significant increase in mechanical threshold in both the abdomen and paws area
- bladder volume capacity (BVC) (CYP-induced cystitis [4]; 20 mg/kg oral): showed efficacy on BVC
- bladder volume capacity (BVC) (CYP-induced cystitis [4]; 30 mg/kg oral): showed efficacy on BVC

SMILES: NCC1(CC(=O)O)CCCCC1 [gabapentin, reference compound]
- antinociceptive effect [5]: partial maximum antinociceptive effect
